From PubChem BioAssay AID624129 (Sanford-Burnham Center for Chemical Genomics, 2012) come the findings set out here.

Calls of active or inactive are those of the source. No rule for the calls is given here.

What is called IC50 is the midpoint of a concentration-inhibition curve. What is called inhibition is the change of the read-out against control, counted positive when it falls.

Experiment in all cases: potency against CXCR6 with APJ panel – cell-based, beta-arrestin, DiscoveRx, uHTS hits, dose response (AID 624129)
In assay [1] the target is C-X-C chemokine receptor type 6 (Homo sapiens) (UniProt O00574). As to conditions: CXCR6 beta-arrestin (DiscoveRx) antagonist cell assay; for inhibition: CXCR6, run 1, dose range 2, at 80 µM (top of the series).
C-X-C chemokine receptor type 6 (Homo sapiens), sequence (O00574 whole entry, looked up): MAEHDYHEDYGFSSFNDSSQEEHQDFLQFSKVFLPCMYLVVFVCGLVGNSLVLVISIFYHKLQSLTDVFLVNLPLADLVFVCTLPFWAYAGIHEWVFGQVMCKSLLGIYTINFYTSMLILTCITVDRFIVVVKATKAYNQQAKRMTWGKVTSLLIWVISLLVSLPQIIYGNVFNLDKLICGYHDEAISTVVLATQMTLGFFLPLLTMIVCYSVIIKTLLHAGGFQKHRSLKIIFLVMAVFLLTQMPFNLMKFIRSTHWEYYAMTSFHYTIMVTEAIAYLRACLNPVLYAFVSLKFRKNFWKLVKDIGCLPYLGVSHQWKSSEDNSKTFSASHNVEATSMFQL
Assay [2] has as its target Beta-galactosidase (Escherichia coli) (UniProt Q8VNN2). Conditions: CXCR6 beta-arrestin (DiscoveRx) antagonist cell assay, b-galactosidase.
Assay [3] concerns the target Apelin receptor (Homo sapiens) (UniProt P35414). As to conditions: CXCR6 beta-arrestin (DiscoveRx) antagonist cell assay, APJ.
The target in assay [4] is C-C chemokine receptor type 6 (Homo sapiens) (UniProt P51684). Conditions: CXCR6 beta-arrestin (DiscoveRx) antagonist cell assay.
The mark [5] stands for this setting: CXCR6, dose range 1, mean IC50 across replicates.
Setting [6] is: dose range 1, mean IC50 across replicates.
Where [7] appears, read: CCR6, dose range 1, mean IC50 across replicates.

Beta-galactosidase (Escherichia coli), sequence (Q8VNN2 whole entry, looked up): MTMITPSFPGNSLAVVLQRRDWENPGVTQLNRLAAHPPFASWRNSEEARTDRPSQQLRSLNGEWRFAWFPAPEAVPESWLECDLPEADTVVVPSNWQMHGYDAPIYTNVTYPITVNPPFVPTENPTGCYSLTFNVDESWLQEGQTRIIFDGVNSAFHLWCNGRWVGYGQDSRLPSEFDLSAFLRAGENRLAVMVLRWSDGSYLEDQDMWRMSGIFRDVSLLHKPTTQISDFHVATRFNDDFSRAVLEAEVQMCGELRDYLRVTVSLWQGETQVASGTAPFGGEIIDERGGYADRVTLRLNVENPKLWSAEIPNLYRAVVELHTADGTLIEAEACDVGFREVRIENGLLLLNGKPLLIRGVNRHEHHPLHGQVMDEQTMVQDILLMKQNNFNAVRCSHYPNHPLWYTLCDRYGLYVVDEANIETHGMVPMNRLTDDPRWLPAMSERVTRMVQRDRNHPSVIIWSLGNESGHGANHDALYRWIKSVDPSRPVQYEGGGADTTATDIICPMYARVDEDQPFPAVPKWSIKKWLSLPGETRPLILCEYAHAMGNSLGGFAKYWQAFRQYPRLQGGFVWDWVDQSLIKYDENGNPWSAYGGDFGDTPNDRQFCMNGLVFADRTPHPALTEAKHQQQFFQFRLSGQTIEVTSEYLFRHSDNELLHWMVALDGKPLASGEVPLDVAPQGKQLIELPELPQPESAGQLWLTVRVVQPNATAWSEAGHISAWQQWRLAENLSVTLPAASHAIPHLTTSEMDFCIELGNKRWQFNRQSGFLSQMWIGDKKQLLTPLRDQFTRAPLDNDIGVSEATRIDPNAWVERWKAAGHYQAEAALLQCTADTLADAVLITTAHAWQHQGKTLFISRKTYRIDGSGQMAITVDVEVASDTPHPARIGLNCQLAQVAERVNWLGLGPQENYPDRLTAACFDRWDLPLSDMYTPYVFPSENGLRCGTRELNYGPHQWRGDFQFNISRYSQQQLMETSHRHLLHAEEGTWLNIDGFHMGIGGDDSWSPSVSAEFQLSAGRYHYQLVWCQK

`C=C1CC2(OC1=O)c1ccccc1CCc1ccccc12`: the IC50 entry in assay [1] (CXCR6, dose range 1) is “inactive”. For the same compound, the IC50 in assay [1] (setting [5]) is 18.7 µM; in assay [1] (CXCR6, run 2, dose range 1), 15.8 µM; in assay [2] (dose range 1), > 80 µM (inactive); in assay [2] (setting [6]), > 80 µM; in assay [3] (setting [6]) it was > 80 µM; in assay [3] (run 2, dose range 1), > 80 µM. Besides, the IC50 in assay [3] (run 3, dose range 1) was > 80 µM; in assay [4] (CCR6, dose range 1) it was 15.1 µM; in assay [4] (setting [7]), 12.9 µM; in assay [4] (CCR6, run 2, dose range 1), 10.7 µM. Also, the inhibition in assay [1] came out at 58.6%.
On to `CC(=O)/C(=N\Nc1ccc(Cl)cc1Cl)Sc1cccc2cccnc12`, for which the IC50 in assay [1] (CXCR6, dose range 1) is 5.34 µM; in assay [1] (setting [5]), 4.07 µM; in assay [1] (CXCR6, run 1, dose range 2) it was 2.66 µM; in assay [1] (CXCR6, run 2, dose range 1), 5.55 µM; in assay [1] (CXCR6, run 2, dose range 2), 2.73 µM; in assay [2] (dose range 1), > 80 µM (inactive). Besides, the 50% inhibitory concentration (IC50) was > 80 µM in assay [2] (setting [6]); 2.83 µM in assay [3] (dose range 1); 3.28 µM in assay [3] (setting [6]); 3.64 µM in assay [3] (run 2, dose range 1); 3.36 µM in assay [3] (run 3, dose range 1); 3.37 µM in assay [4] (CCR6, dose range 1). Besides, the half-inhibitory concentration (IC50) in assay [4] (setting [7]) was found to be 3.94 µM; in assay [4] (CCR6, run 2, dose range 1), 4.51 µM.
For the compound `CCC(=O)OCCNc1cc(Sc2nc3ccccc3s2)c2nonc2c1[N+](=O)[O-]`, the IC50 in assay [1] (CXCR6, dose range 1) was 8.94 µM; in assay [1] (setting [5]), 8.4 µM; in assay [1] (CXCR6, run 1, dose range 2), 10 µM; in assay [1] (CXCR6, run 2, dose range 1), 8.87 µM; in assay [1] (CXCR6, run 2, dose range 2), 5.77 µM; in assay [2] (dose range 1), > 80 µM (inactive). In addition, the IC50 in assay [2] (setting [6]) was > 80 µM; in assay [3] (dose range 1), 32.9 µM; in assay [3] (setting [6]), 28 µM; in assay [3] (run 2, dose range 1) it was 23.1 µM; in assay [3] (run 3, dose range 1), > 80 µM; in assay [4] (CCR6, dose range 1) it was 8.93 µM. The 50% inhibitory concentration (IC50) stood at 8.72 µM in assay [4] (setting [7]) and 8.5 µM in assay [4] (CCR6, run 2, dose range 1).
On to `Cc1ccc(S(=O)(=O)Nc2cccc3cccnc23)cc1`, for which the IC50 was 10.3 µM in assay [1] (CXCR6, dose range 1); 8.04 µM in assay [1] (setting [5]); 5.75 µM in assay [1] (CXCR6, run 2, dose range 1); > 80 µM (inactive) in assay [2] (dose range 1); > 80 µM in assay [2] (setting [6]); 16.7 µM in assay [3] (dose range 1). Also, the IC50 in assay [3] (setting [6]) was 17.8 µM; in assay [3] (run 2, dose range 1), 19 µM; in assay [3] (run 3, dose range 1) it was 17.5 µM; in assay [4] (CCR6, dose range 1) it was 7.97 µM; in assay [4] (setting [7]), 8.52 µM; in assay [4] (CCR6, run 2, dose range 1), 9.06 µM. Besides, the inhibition in assay [1] worked out at 118%.
Turning to `Oc1c(Br)cc(Br)cc1C=NCc1ccccc1`, in assay [1] (CXCR6, dose range 1), the IC50 entry is “inactive”. Moreover, the IC50 in assay [1] (setting [5]) is 18.1 µM; in assay [1] (CXCR6, run 1, dose range 2) it was 10.2 µM; in assay [1] (CXCR6, run 2, dose range 1) it was 22.9 µM; in assay [1] (CXCR6, run 2, dose range 2), 10.6 µM; in assay [2] (dose range 1), 28.5 µM; in assay [2] (setting [6]), 28.5 µM. For the same compound, the IC50 in assay [3] (dose range 1) is 17 µM; in assay [3] (setting [6]) it was 17.9 µM; in assay [3] (run 2, dose range 1), 21.6 µM; in assay [3] (run 3, dose range 1) it was 15.1 µM; in assay [4] (CCR6, dose range 1), 16.8 µM; in assay [4] (setting [7]), 18.6 µM. Moreover, the IC50 in assay [4] (CCR6, run 2, dose range 1) is 20.5 µM.
On to `O=C(N/N=C(\c1ccccc1)c1cccnc1)c1cccc(F)c1`, for which the IC50 was 4.5 µM in assay [1] (CXCR6, dose range 1); 4.01 µM in assay [1] (setting [5]); 3.07 µM in assay [1] (CXCR6, run 1, dose range 2); 5.13 µM in assay [1] (CXCR6, run 2, dose range 1); 3.34 µM in assay [1] (CXCR6, run 2, dose range 2); > 80 µM (inactive) in assay [2] (dose range 1). Further, the IC50 in assay [2] (setting [6]) is > 80 µM; in assay [3] (dose range 1), 4.18 µM; in assay [3] (setting [6]), 4.46 µM; in assay [3] (run 2, dose range 1), 5.15 µM; in assay [3] (run 3, dose range 1), 4.05 µM; in assay [4] (CCR6, dose range 1), 4.35 µM. Also, the IC50 in assay [4] (setting [7]) came to 4.64 µM; in assay [4] (CCR6, run 2, dose range 1), 4.93 µM.
Turning to `O=C1C(Cc2ccccc2)Nc2ncnc(N3CCN(c4ccccc4)CC3)c2N1Cc1ccc(Cl)cc1` (stereo not given), the IC50 was 2.01 µM in assay [1] (CXCR6, dose range 1); 1.94 µM in assay [1] (setting [5]); 1.77 µM in assay [1] (CXCR6, run 1, dose range 2); 2.04 µM in assay [1] (CXCR6, run 2, dose range 1); 1.94 µM in assay [1] (CXCR6, run 2, dose range 2); > 80 µM (inactive) in assay [2] (dose range 1). The IC50 in assay [2] (setting [6]) was > 80 µM; in assay [3] (setting [6]) it was 20.2 µM; in assay [3] (run 2, dose range 1), 5.81 µM; in assay [3] (run 3, dose range 1), 53.2 µM; in assay [4] (CCR6, dose range 1), 3.28 µM; in assay [4] (setting [7]), 2.67 µM. Further, the IC50 in assay [4] (CCR6, run 2, dose range 1) was found to be 2.06 µM. In addition, in assay [3] (dose range 1), the IC50 entry was “inactive”.
